Where two headings read alike, the source gives them in different places.
Legend:
[1] = tested on: acetic acid-induced stretching symptom of mouse; experiment: Analgesic activity, acetic acid-induced stretching method; type: in vivo, mice (ddy strain, male); settings: for ED50: oral, mice (Δ values; range in parentheses), read-out: Analgesic activity, acetic acid-induced stretching method, 50% effective dose ED50
Procedure: (§1) Next, several tests for determining the pharmacological properties, in that acute toxicity, anti-pyretic activity, analgesic activity and anti-inflammatory activity of the present 1,3,5-substituted biuret compounds of the formula (1) were conducted and the test results are shown in Table (2). In the tests, each compounds to be tested was used as a suspension in 0.25% carboxymethylcellulose solution. Methods for testing are explained as follows:
(1) Acetic acid-induced stretching method
According to the method reported by Koster et.al., [Fed. Proc., Vol. 18, pp. 412 (1959)], the ddy strain of male mice (body weight, 20-25 g) were used as test animals. The mice were fasted overnight, 100 mg/kg body weight of the test compound was administered orally, then 1 hour after the administration, 0.2 ml of 0.7% acetic acid solution was injected intraperitoneally. The acetic acid-induced stretching symptom of mouse was observed. Analgesic activity of the test compound was calculated as the inhibitory ratio (%). In Table 2, the values in parentheses show the data obtained from the test by using the dosage other than 100 mg/kg body weight. Further, the values indicated with Δ marks show 50% effective dose, ED50 (mg/kg body weight).

[2] = tested on: 10% dry-yeast suspension-induced fever of rats; experiment: Anti-pyretic activity (dry-yeast induced fever, febril index); type: in vivo, rats (Wistar strain, male); settings: oral, febril index up to 4 hours after administration, dose not stated
Procedure: as §1
According to the method reported by Tanabe [Folia Pharmacologia Japonica, Vol. 73, pp. 803 (1977)], the Wistar strain of male rats (150-180 g body weight) were used as test animals. The rats were fasted overnight, and 1 ml/100 g (body weight) of 10% dry-yeast suspension were subcutaneously injected on the back of the rats. Five hours afte the injection, the test compound was administered orally, then the body temperature of the rat was measured time sequences. Anti-pyretic activity of the test compound was determined as the FI (febril index) by integrating pyrogenetic curve up to 4 hours after the administration of the test compound with time, and indicated as inhibitory ratio (%) shown by the following formula, [formula]

[3] = Acute toxicity (oral, general symptom and death observed for 7 days); type: in vivo, mice (ddy strain, male); settings: mouse, in vivo; oral, mice, 7 days observation (Δ values); read-out: Acute toxicity, 50% lethal dose LD50
Procedure: as §1
(§2) The ddy strain of male mice (body weight, 20-25 g) were used as test animals. The mice were fasted overnight and the compound to be tested was administered orally. […] The lethal dose (mg/kg, body weight) of the test compound was determined in connection with the death number of mice/the number of mice tested. In Table 2, the values indicated with Δ marks are 50% lethal dose, LD50 (mg/kg, body weight).

[4] = tested on: carrageenin-induced inflammation of the hindpaw of the rat; experiment: Anti-inflammatory activity, acute carrageenin-induced inflammatory test; type: in vivo, rats (Wistar strain, male); settings: Rattus norvegicus, read-out: Anti-inflammatory activity, inflammation inhibitory ratio
Procedure: as §1
4. Anti-inflammatory Activity
According to the method of acute carrageenin-induced inflammatory test [Folia Pharmacologia Japonica, Vol. 56, pp. 575 (1960)], the Wistar strain of male rats (body weight, 150-180 g) were used as test animals. The rats were fasted overnight, 100 mg/kg body weight of the test compound was administered orally, then 1 hour after the administration, 0.1 ml of 1% carrageenin solution, as the inflammation inducing agent, was injected subcutaneously to the hindpaw of the rat and the volume of the hindpaw was measured at time sequences. Anti-inflammatory activity of the test compound was calculated as inflammation inhibitory ratio (%) at 3 hours after the injection of inflammation inducing agent.

[5] = tested on: pain reaction of the mouse caused by a clamp; experiment: Analgesic activity, Haffner method; type: in vivo, mice (ddy strain, male); settings: for ED50: Mus musculus, oral, mice (Δ values; range in parentheses), read-out: Analgesic activity, Haffner method, 50% effective dose ED50; for Analgesic activity, Haffner method, inhibitory ratio: mice
Procedure: as §1
According to the modified method reported by Fujimura et al., [Bulletin of the Institute for Chemical Research, Kyoto University, No. 25, pp. 36 (1951)], the ddy strain of male mice (body weight, 20-25 g) were used as test animals. The mice were fasted overnight, 100 mg/kg body weight of the test compound was administered orally, then 45 minutes after the administration, the threshhold amount (1.5-2.5 mg/kg body weight) of morphine hydrochloride was injected subcutaneously. Then 1-hour pain reaction of the mouse caused by a clamp was observed. Analgesic activity of the test compound was calculated as the inhibitory ratio (%). In Table 2, the values in parentheses show the data obtained from the test by using the dosage other than 100 mg/kg body weight. Further, the values indicated with Δ marks show 50% effective dose, ED50 (mg/kg body weight).

[6] = tested on: ddy strain of male mice; experiment: Acute toxicity (oral, general symptom and death observed for 7 days); type: in vivo; settings: 2000 mg/kg oral, 7 days
Procedure: as §1, §2

[7] = 100 mg/kg oral, rats, 3 hours after carrageenin
[8] = po, read-out: Analgesic activity, acetic acid-induced stretching method, inhibitory ratio

| Structure (SMILES) | ED50 [1] | Anti-pyretic activity, inhibitory ratio [2] | LD50 at 168 h [3] | inhibition in vivo at 100 mg/kg [4, 7] | ED50 [5] | inhibition in vivo at 100 mg/kg ([1]; 100 mg/kg oral, mice, read-out: Analgesic activity, acetic acid-induced stretching method, inhibitory ratio) | Analgesic activity, Haffner method, inhibitory ratio ([5]; 100 mg/kg oral) | inhibition in vivo at 100 mg/kg [1, 8] | inhibition in vivo at 100 mg/kg ([4]; po, 3 h) | inhibition in vivo at 200 mg/kg [1, 8] | inhibition in vivo at 200 mg/kg ([4]; 200 mg/kg oral, rats, 3 hours after carrageenin) | Analgesic activity, Haffner method, inhibitory ratio ([5]; 200 mg/kg oral) | Acute toxicity, death number of mice/number of mice tested [6] |
| --- | --- | --- | --- | --- | --- | --- | --- | --- | --- | --- | --- | --- | --- |
| CNC(=O)N(C)C(=O)Nc1ccccc1 [Compound No. 3, 1,3-dimethyl-5-phenylbiuret] | 35 mg/kg | 145% | 1450 mg/kg | 88% | 111 mg/kg |  |  |  |  |  |  |  |  |
| CNC(=O)N(C)C(=O)Nc1ccc(OC)cc1 [Compound No. 8, 1,3-Dimethyl-5-(4-methoxyphenyl)-biuret] |  | 110% | 1440 mg/kg | 40% |  | 87.5% | 50% |  |  |  |  |  |  |
| CNC(=O)N(C)C(=O)Nc1ccccn1 [Compound No. 14, 1,3-dimethyl-5-(2-pyridyl)biuret] |  |  | 656 mg/kg | 54% | 145 mg/kg |  |  | 62.5% |  |  |  |  |  |
| CNC(=O)N(C)C(=O)Nc1cccnc1 [Compound No. 15, 1,3-Dimethyl-5-(3-pyridyl)-biuret] | 44 mg/kg | 94% | 1100 mg/kg | 37% |  |  | 62.5% |  |  |  |  |  |  |
| CCNC(=O)N(C)C(=O)Nc1ccccc1 [Compound No. 31, 1-ethyl-3-methyl-5-phenylbiuret] | 70 mg/kg | 149% | 1590 mg/kg | 63% | 105 mg/kg |  |  |  |  |  |  |  |  |
| CCNC(=O)N(C)C(=O)Nc1cc(OC)c(OC)c(OC)c1 [Compound No. 37, 1-Ethyl-3-methyl-5-(3,4,5-trimethoxyphenyl)biuret] |  | 97% | 749 mg/kg |  | 46 mg/kg |  |  | 75% |  |  |  |  |  |
| CNC(=O)N(C)C(=O)Nc1ccc(Cl)cc1 [compound 6] | 40 mg/kg | 72% | 1240 mg/kg |  |  |  | 50% |  | 43% |  |  |  |  |
| CNC(=O)N(C)C(=O)Nc1ccc2c(c1)OCO2 [compound 9, 1,3-Dimethyl-5-(3,4-methylenedioxyphenyl)biuret] |  | 38% | 1080 mg/kg | 46% |  |  | 25% | 87.5% |  |  |  |  |  |
| CNC(=O)N(C)C(=O)Nc1ccncc1 [compound 16] |  |  | 1100 mg/kg | 34% |  |  | 25% | 62.5% |  |  |  |  |  |
| CNC(=O)N(C)C(=O)Nc1ncccn1 [compound 19, 1,3-Dimethyl-5-(2-pyrimidinyl)biuret] |  | 6% | 1400 mg/kg |  |  |  | 37.5% | 50% |  |  |  |  |  |
| CCNC(=O)NC(=O)Nc1ccc(OC)cc1 [compound 28, 1-Ethyl-5-(4-methoxyphenyl)biuret] |  |  | 1600 mg/kg |  |  |  |  |  |  | 37.5% | 75% | 37.5% |  |
| CCNC(=O)N(C)C(=O)Nc1ccc(OC)c(OC)c1 [compound 36, 1-Ethyl-3-methyl-5-(3,4-dimethoxyphenyl)biuret] |  | 43% | 833 mg/kg |  |  |  | 62.5% | 50% | 23% |  |  |  |  |
| CCNC(=O)N(C)C(=O)Nc1cccs1 [compound 40] |  | 42% | 559 mg/kg |  |  |  | 37.5% | 75% | 24% |  |  |  |  |
| C=CCNC(=O)NC(=O)Nc1ccccc1 [compound 44] |  |  | 1400 mg/kg |  |  |  | 50% | 62.5% | 33% |  |  |  |  |
| CCC(C)NC(=O)N(C)C(=O)Nc1ccccc1 (centres unmarked) [compound 50, 1-(1-Methylpropyl)-3-methyl-5-phenylbiuret] |  | 27% |  |  |  |  | 25% | 62.5% | 47% |  |  |  | 0/4 |
| CN(C(=O)Nc1ccccc1)C(=O)NC(C)(C)C [compound 51, 1-tert-Butyl-3-methyl-5-phenylbiuret] |  | 83% |  | 34% |  |  | 37.5% | 50% |  |  |  |  | 0/4 |

— US4350700A, “Pharmaceutical composition containing 1,3,5-substituted biuret compound” (Taiho Pharmaceutical Company, Limited, priority 1979, dated 1982)
